Values belong to the compound of their own block, whether it stands above or below them.
Columns and labels:
[1] = target: T1, Epidermal growth factor receptor (Homo sapiens, UniProt P00533); test: Inhibition of EGFR (unknown origin) incubated for 30 mins in presence of ATP by fluorescence based analysis
[2] = target: Tyrosine-protein kinase CSK (Homo sapiens, UniProt P41240); test: Inhibition of CSK (unknown origin) by ADP-Glo kinase assay
[3] = target: T1, Epidermal growth factor receptor; test: Inhibition of EGFR (unknown origin) by ADP-Glo kinase assay
[4] = target: Fibroblast growth factor receptor 1 (Homo sapiens, UniProt P11362); test: Inhibition of N-terminal GST-tagged recombinant wild type human FGFR1 (398 to 822 residues) expressed in baculovirus infected Sf21 cells incubated for 1 hr in presence of ATP by caliper mobility shift assay
NCI-H1975 [5] = test: Antiproliferative activity against human NCI-H1975 cells assessed as cell growth inhibition incubated for 72 hrs by MTS assay; format: functional, cell-based; details: NCI-H1975, 72 h
[6] = target: T2, Epidermal growth factor receptor (Homo sapiens, UniProt P00533, T790M); test: Inhibition of human EGFR T790M mutant expressed in baculovirus expression system using CAGAGAIETDKEYYTVKD as substrate preincubated for 10 mins followed by substrate and ATP addition measured after 1 hr by TR-FRET assay
[7] = target: T1, Epidermal growth factor receptor; test: Inhibition of human EGFR expressed in baculovirus expression system using CAGAGAIETDKEYYTVKD as substrate preincubated for 10 mins followed by substrate and ATP addition measured after 1 hr by TR-FRET assay
MCF7 [8] = test: Antiproliferative activity against human MCF7 assessed as cell growth inhibition measured after 72 hrs by MTT assay; format: functional, cell-based; details: MCF7, 72 h
Tubulin = test: Inhibition of tubulin polymerization in human HCT-116 cells incubated for 18 to 24 hrs by horseradish peroxidase based ELISA method; format: cell-based
HCT-116 [9] = test: Antiproliferative activity against human HCT-116 assessed as cell growth inhibition measured after 72 hrs by MTT assay; format: functional, cell-based; details: HCT-116, 72 h
[10] = target: T1, Epidermal growth factor receptor; test: Inhibition of EGFR (unknown origin)
SK-BR-3 = test: Antiproliferative activity against human SK-BR-3 cells assessed as cell growth inhibition; format: functional, cell-based
A-431 = test: Antiproliferative activity against human A-431 cells assessed as cell growth inhibition; format: functional, cell-based
[11] = target: Insulin-like growth factor 1 receptor (Homo sapiens, UniProt P08069); test: Inhibition of IGF1R (unknown origin)
MDA-MB-231 = test: Antiproliferative activity against human MDA-MB-231 cells assessed as cell growth inhibition measured after 72 hrs by MTT assay; format: functional, cell-based; details: MDA-MB-231, 72 h
Histone deacetylase = test: Inhibition of HDAC in human HeLa cell nuclear extract using Boc-Lys (acetyl)-AMC as substrate preincubated for 5 mins followed by substrate addition measured after 30 mins by microplate reader analysis; format: cell-free
HeLa = test: Antiproliferative activity against human HeLa cells assessed as cell growth inhibition measured after 72 hrs by MTT assay; format: functional, cell-based
A549 = test: Antiproliferative activity against human A549 cells assessed as cell growth inhibition measured after 72 hrs by MTT assay; format: functional, cell-based; details: A549, 72 h
MDA-MB-468 = test: Antiproliferative activity against human MDA-MB-468 cells assessed as cell growth inhibition measured after 72 hrs by MTT assay; format: functional, cell-based; details: MDA-MB-468, 72 h
KG-1 = test: Antiproliferative activity against human KG-1 cells assessed as cell growth inhibition measured after 72 hrs by MTT assay; format: functional, cell-based; details: KG-1, 72 h
HCT-116 [12] = test: Antiproliferative activity against human HCT-116 cells assessed as cell growth inhibition incubated for 42 hrs by MTT assay; format: functional, cell-based; details: HCT-116, 42 h
[13] = target: T1, Epidermal growth factor receptor; test: Inhibition of EGFR (unknown origin) using FAM-labeled peptide as substrate incubated for 10 mins in presence of ATP by caliper mobility shift assay
[14] = target: T3, Vascular endothelial growth factor receptor 2 (Homo sapiens, UniProt P35968); test: Inhibition of VEGFR-2 (unknown origin) using FAM-labeled peptide as substrate incubated for 10 mins in presence of ATP by caliper mobility shift assay
MCF7 [15] = test: Antiproliferative activity against human MCF7 cells assessed as cell growth inhibition incubated for 42 hrs by MTT assay; format: functional, cell-based; details: MCF7, 42 h
B16 = test: Antiproliferative activity against mouse B16 cells assessed as cell growth inhibition incubated for 42 hrs by MTT assay; format: functional, cell-based; details: B16, 42 h
[16] = target: T2, Epidermal growth factor receptor; test: Inhibition of EGFR T790M mutant (unknown origin) incubated for 1 hr by Z-lyte kinase assay
[17] = target: Hepatocyte growth factor receptor (Homo sapiens, UniProt P08581); test: Inhibition of c-MET (unknown origin) incubated for 1 hr by Z-lyte kinase assay
[18] = target: T3, Vascular endothelial growth factor receptor 2; test: Inhibition of VEGFR2 (unknown origin)
[19] = target: T2, Epidermal growth factor receptor; test: Inhibition of EGFR T790M mutant (unknown origin)
[20] = target: Epidermal growth factor receptor (Homo sapiens, UniProt P00533, L858R/T790M); test: Inhibition of EGFR L858R/T790M mutant (unknown origin)
NCI-H1975 [21] = test: Antiproliferative activity against human NCI-H1975 cells assessed as cell growth inhibition; format: functional, cell-based
[22] = target: Platelet-derived growth factor receptor beta (Homo sapiens, UniProt P09619); test: Binding affinity to GST-tagged human recombinant PDFGR beta expressed in baculovirus infected Sf9 insect cells assessed as inhibition constant using poly(Ala,Glu,Lys,Tyr) 6:2:5.1 as substrate incubated for 60 mins in presence of [gamma33P]ATP by microplate scintillation counter analysis
[23] = target: T1, Epidermal growth factor receptor; test: Binding affinity to GST-tagged human recombinant EGFR expressed in baculovirus infected Sf9 insect cells assessed as inhibition constant using poly(Glu,Tyr) 4:1 as substrate incubated for 60 mins in presence of [gamma33P]ATP by microplate scintillation counter analysis

T2 sequence (P00533 25-1210 T790M limits assumed): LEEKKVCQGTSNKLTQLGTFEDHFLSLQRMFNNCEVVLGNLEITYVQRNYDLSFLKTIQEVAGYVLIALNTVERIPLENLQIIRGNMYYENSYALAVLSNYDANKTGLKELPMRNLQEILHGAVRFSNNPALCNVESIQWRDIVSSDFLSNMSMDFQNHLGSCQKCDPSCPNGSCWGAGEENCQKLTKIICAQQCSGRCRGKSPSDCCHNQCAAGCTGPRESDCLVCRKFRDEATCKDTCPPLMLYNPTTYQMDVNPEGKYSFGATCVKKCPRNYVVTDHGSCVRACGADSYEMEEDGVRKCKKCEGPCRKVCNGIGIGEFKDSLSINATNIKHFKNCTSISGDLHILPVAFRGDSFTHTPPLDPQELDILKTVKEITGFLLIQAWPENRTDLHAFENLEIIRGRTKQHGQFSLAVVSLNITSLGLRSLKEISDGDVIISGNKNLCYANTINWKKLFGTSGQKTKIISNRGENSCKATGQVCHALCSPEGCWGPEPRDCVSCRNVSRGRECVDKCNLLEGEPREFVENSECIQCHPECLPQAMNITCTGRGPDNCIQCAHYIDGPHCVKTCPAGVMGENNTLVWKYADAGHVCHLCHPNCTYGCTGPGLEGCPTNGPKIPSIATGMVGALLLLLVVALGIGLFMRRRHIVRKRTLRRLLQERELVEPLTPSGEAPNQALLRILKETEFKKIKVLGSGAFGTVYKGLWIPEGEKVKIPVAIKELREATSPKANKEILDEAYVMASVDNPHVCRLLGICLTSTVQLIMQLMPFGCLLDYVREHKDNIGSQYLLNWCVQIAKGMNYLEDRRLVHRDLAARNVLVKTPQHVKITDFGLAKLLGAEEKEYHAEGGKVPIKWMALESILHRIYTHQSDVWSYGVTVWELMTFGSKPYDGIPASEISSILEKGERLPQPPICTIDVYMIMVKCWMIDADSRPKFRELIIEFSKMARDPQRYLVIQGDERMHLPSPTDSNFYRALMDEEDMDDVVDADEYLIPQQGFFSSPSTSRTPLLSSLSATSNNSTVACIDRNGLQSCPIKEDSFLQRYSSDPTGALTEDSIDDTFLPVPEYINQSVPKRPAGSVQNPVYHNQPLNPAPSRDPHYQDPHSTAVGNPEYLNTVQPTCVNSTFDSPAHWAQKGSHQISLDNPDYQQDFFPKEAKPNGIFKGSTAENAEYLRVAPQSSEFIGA
T1 sequence (P00533 whole entry): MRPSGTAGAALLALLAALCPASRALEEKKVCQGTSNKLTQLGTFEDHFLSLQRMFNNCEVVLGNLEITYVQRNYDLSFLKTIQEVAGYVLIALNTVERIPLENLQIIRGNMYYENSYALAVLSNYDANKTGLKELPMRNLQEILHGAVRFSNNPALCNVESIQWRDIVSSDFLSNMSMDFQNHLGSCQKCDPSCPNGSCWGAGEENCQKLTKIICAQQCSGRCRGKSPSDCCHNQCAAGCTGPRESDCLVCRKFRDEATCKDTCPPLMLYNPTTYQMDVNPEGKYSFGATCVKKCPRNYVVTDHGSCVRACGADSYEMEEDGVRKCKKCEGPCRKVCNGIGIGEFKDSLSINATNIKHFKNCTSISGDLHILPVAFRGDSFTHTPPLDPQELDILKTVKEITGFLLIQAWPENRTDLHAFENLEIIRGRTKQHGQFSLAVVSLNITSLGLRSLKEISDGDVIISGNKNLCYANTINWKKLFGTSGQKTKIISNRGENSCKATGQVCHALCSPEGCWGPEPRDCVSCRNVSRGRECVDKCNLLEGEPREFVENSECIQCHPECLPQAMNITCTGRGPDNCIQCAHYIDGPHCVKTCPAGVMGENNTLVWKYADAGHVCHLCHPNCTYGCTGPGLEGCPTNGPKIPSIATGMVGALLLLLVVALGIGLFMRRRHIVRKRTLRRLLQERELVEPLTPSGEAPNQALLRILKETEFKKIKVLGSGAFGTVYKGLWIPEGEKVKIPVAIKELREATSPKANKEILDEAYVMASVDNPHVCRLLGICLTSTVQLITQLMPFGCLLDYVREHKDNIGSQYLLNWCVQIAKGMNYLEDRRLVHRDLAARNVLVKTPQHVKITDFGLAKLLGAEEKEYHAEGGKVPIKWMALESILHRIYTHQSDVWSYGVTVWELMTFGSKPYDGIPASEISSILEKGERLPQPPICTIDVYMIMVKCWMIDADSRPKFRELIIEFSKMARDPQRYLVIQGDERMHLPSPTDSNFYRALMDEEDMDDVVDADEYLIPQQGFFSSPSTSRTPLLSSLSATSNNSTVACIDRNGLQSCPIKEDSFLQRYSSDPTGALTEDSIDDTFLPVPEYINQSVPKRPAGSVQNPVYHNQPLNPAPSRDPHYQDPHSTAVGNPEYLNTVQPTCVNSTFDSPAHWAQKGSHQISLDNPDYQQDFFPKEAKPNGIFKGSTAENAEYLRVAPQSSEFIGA
Hepatocyte growth factor receptor, sequence (P08581 whole entry): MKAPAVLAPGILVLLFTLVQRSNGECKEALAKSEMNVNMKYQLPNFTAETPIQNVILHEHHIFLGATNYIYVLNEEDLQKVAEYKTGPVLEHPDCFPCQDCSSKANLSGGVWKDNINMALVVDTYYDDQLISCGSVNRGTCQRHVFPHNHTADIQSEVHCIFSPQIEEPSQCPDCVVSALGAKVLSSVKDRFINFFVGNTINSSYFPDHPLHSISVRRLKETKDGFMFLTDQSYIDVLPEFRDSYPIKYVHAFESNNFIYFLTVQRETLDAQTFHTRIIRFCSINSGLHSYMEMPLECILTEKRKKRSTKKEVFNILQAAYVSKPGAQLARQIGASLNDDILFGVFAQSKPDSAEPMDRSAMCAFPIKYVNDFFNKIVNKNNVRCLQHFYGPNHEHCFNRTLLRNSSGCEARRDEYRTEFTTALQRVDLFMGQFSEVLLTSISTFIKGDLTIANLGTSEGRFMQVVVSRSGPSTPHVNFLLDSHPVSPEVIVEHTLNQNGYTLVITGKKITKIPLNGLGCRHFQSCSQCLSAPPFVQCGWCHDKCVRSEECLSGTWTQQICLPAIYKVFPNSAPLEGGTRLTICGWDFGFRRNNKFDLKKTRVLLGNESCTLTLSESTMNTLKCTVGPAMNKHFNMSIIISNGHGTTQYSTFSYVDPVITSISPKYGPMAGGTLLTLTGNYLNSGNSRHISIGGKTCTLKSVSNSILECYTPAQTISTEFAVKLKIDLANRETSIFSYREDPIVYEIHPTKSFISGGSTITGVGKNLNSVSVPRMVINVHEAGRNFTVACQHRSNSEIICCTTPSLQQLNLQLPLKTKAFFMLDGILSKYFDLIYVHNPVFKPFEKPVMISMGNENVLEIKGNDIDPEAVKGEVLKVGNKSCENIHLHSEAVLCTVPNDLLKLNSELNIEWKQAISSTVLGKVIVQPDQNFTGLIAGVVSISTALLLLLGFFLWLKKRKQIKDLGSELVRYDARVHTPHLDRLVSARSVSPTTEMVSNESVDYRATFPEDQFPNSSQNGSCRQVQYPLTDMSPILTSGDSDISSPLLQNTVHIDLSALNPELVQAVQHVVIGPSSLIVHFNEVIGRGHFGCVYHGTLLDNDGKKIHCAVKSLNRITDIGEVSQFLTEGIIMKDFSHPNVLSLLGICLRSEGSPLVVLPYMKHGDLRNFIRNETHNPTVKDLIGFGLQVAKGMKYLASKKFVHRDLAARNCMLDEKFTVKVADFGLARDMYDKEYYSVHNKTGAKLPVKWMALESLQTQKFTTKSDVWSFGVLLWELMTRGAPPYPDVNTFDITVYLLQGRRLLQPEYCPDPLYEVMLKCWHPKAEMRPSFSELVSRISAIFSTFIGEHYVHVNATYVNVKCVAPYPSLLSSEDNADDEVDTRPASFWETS
T3 sequence (P35968 whole entry): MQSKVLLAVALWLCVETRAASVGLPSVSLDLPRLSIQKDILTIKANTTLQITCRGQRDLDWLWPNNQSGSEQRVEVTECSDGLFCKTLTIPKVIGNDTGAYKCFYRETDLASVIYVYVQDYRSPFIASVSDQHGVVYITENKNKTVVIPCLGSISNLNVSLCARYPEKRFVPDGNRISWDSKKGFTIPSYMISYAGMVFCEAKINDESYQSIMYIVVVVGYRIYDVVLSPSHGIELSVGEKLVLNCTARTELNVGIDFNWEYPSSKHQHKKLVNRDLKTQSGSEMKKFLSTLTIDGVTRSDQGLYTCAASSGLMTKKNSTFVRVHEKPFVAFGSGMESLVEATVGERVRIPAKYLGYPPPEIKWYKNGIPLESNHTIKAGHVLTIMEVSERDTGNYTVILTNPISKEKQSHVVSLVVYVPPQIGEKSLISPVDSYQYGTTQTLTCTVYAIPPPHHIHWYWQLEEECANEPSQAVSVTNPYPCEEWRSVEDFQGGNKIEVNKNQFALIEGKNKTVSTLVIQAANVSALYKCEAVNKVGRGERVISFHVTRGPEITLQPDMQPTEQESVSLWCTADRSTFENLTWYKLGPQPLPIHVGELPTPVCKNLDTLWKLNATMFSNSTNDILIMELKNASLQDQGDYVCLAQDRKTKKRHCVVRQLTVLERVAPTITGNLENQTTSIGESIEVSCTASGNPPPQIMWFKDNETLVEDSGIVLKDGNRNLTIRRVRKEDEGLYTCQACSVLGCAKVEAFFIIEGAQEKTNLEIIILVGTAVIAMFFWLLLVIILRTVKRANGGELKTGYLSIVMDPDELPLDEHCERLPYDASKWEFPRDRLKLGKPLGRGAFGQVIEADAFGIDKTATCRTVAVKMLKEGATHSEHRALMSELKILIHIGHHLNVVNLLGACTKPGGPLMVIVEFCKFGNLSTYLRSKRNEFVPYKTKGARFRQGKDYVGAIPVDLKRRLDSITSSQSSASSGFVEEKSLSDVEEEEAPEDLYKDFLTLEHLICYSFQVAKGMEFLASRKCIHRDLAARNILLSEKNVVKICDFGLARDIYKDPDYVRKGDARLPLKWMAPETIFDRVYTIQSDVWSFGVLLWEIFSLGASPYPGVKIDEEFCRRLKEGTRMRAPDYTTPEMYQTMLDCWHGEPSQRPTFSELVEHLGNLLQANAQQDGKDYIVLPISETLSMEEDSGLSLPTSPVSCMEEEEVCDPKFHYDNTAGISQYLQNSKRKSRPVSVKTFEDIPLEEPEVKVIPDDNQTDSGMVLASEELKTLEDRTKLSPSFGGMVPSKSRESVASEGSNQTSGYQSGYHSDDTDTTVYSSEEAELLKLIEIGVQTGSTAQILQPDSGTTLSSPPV

Structure (SMILES): Cc1nn(-c2ccc(F)cc2)c2ncnc(Nc3ccc(F)c(Cl)c3)c12
IC50 [1]: 186 nM

Structure (SMILES): CN1CCN(c2ccc(Nc3ncc(Br)c(Nc4ccc5cn[nH]c5c4)n3)cc2)CC1
IC50 [4]: 17.6 nM
IC50 (NCI-H1975 [5]): 336 nM

Structure (SMILES): O=C(Cc1ccccc1)Nc1cccc(-c2nc3n(c2-c2ccnc(Nc4ccc(N5CCOCC5)cc4)n2)CCS3)c1
IC50 [6]: 66 nM
IC50 [7]: 35.5 nM

Structure (SMILES): CCc1nnc2c(Nc3ccc(C(=O)/C=C/c4cc(OC)c(OC)c(OC)c4)cc3)nc3ccccc3n12
IC50 (MCF7 [8]): 1650 nM
IC50 (Tubulin): 8.84 µM
IC50 (HCT-116 [9]): 3.61 µM

Structure (SMILES): COc1cc(NC(=O)CCCCCCC(=O)NO)ccc1Nc1nccc(-c2cn(C)c3ccccc23)n1
IC50 (MDA-MB-231): 600 nM
IC50 (Histone deacetylase): 85 nM
IC50 (HeLa): 1850 nM
IC50 (A549): 2190 nM
IC50 (MDA-MB-468): 230 nM
IC50 (KG-1): 420 nM

Structure (SMILES): COc1cc2ncnc(Sc3cccc(NC(=S)Nc4ccc(Br)c(C(F)(F)F)c4)c3)c2cc1OC
IC50 (HCT-116 [12]): 5.57 µM
IC50 [13]: 10 nM
IC50 [14]: 80 nM
IC50 (MCF7 [15]): 5.57 µM
IC50 (B16): 5.57 µM

Structure (SMILES): CC(C)c1ccc(Cn2cc(-c3cc(-c4ccc(Br)cc4)nc(N)n3)c3ccccc32)cc1
IC50 [16]: 94 nM
IC50 [17]: 595 nM

Structure (SMILES): C=CC(=O)Nc1cc2c(Nc3ccc(Br)cc3F)ncnc2cc1OCCNC(=O)CN(C)C
IC50 [10]: 2 nM
IC50 [18]: 103 nM
IC50 [19]: 11 nM
IC50 (A-431): 14 nM
IC50 [20]: 3 nM
IC50 (NCI-H1975 [21]): 130 nM

Structure (SMILES): Nc1nc(Nc2ccc(COc3cccc(F)c3)cc2)c2c(n1)[nH]c1ccc(O)cc12
Ki [22]: 81 nM
Ki [23]: 170 nM

Structure (SMILES): CCOc1cc2ncc(C#N)c(Nc3ccc(OCc4ccccn4)c(Cl)c3)c2cc1NC(=O)/C=C/CN(C)C [NERATINIB]
IC50 (A-431): 2150 nM

Second part, the compound after the results:

IC50 [2]: 5.16 µM
IC50 [3]: 11.1 µM
Structure (SMILES): COc1ccc(CCOc2ccc(C(=O)/C=C/c3ccc(O)c(O)c3)cc2OC)cc1OC

IC50 [10]: 597 nM
IC50 (SK-BR-3): 1930 nM
IC50 (A-431): 1890 nM
IC50 [11]: 908 nM
Structure (SMILES): CCOc1cc2ncc(C#N)c(Nc3ccc(OCc4ccccc4)cc3)c2cc1NC(=O)/C=C/c1cccnc1

IC50 [16]: 97 nM
IC50 [17]: 518 nM
Structure (SMILES): CCc1ccc(Cn2cc(-c3cc(-c4ccc(Br)cc4)nc(N)n3)c3ccccc32)cc1

IC50 [16]: 195 nM
IC50 [17]: 101 nM
Structure (SMILES): Nc1nc(-c2ccc(Br)cc2)cc(-c2cn(Cc3cccc(Cl)c3)c3ccccc23)n1

IC50 (HCT-116 [12]): 5.57 µM
IC50 [13]: 20 nM
IC50 [14]: 50 nM
IC50 (MCF7 [15]): 5.57 µM
IC50 (B16): 5.57 µM
Structure (SMILES): COc1cc2ncnc(Oc3cccc(NC(=S)Nc4ccc(Cl)c(C(F)(F)F)c4)c3)c2cc1OC
